Marks after values point to notes of the source that are not given here.
Key:
[1] = Maximum expulsion percent of single metal cations from water solution (Example 8)
Method: A water solution (110 ml) containing known amount of single cationic element or elements, typically 0.5-200 ppm, was prepared from Merch Titrisol® standard solution. After adjusting pH by using acid (e.g. HCl or HNO3) or base (e.g. NaOH) to desired initial value, sample A (10 ml) was taken followed by adding 100 mg of selected solid complexation agent. The mixture was stirred at room temperature for 24 h and sample B (10 ml) was taken. Samples A and B were filtrated separately trough 0.2 μm syringe filter and the concentration of the studied element or elements in both solution was determined by using atomic absorption spectrophotometer. The expulsion percent was determined from the concentration differences between the sample solutions A and B.
The maximum expulsion percent and pH value in which the value was achieved was determined for each single cationic element using the general procedure mentioned above.

[2] = Collection of gold from TS 5 (Example 21); conditions: Au^3+ spiked TS 5, pH 3.0, 1a 5 g
Method: A test solution containing 1-15 mg/l of Al^3+, Fe^2/3+, Mg^2+, Mn^2+, Ni^2+ and Zn^2+; 0.1-0.9 mg/l of Ca^2+ and Na^+; and trace amount of other Cr^3+, Co^2+, Cu^2+, Eu^3+, La^3+, Nd^3+, Y^3+, UO2^2+ and Nb^5+ cations were prepared.
TS 5 (100 ml) was spiked with Au^3+ (87.7 mg/ml) Merch Titrisol® standard solution. After pH of the mixture was adjusted to 3.0 by HNO3 sample A was taken followed by adding 1a (5 g). The mixture was stirred at room temperature for 24 h and a sample B was taken. Samples A and B were filtrated separately trough 0.2 μm syringe filter and the concentration of selected element in both solution was determined by using ICP-AES method. The expulsion percent for selected elements were determined from the concentration differences between the samples A and B. Results of gold recovery from TS 5 is given in Table 15.

[3] = Purification of ash water from toxic waste disposal plant, TS 3 (Example 18)
Method: An ash sample (200 g) obtained from toxic waste disposal plant was suspended to water (2.0 l) and stirred for 24 h and filtrated. Approximate metal concentrations (pH 3.62): 1-4 g/l of Ca^2+, K^+ and Na^+, 0.1-0.2 g/l of Al^3+, Mg^2+ and Zn^2+; ≦0.02 g/l of Cd^2+, Mn^2+, Pb^2+ and Sr^2+.
TS 3, TS 3 diluted to 1:10 (TS 3a), TS 3 diluted to 1:100 (TS 3b) and Cd^2+, Pb^2+ and Zn^2+ spiked samples TS 3a and TS 3b were each treated with 1a (1.0 g) with stirring for 24 h. These five samples were separately filtrated trough 0.2 μm syringe filter and metal concentrations in each solution were determined by ICP-AES method before and after treatment with 1a.

## NCCCCCCCCCCC(O)(P(=O)(O)O)P(=O)(O)O [Compound 1a, 11-Amino-1-hydroxyundecane-1,1-diyldiphosphonic acid]
[1]; Ag^+, pH 2.0, initial 1 ppm
  Expulsion-% (maximum): 100%
[1]; Al^3+, pH 2.1, initial 10 ppm
  Expulsion-% (maximum): 96.9%
[1]; Au^3+, pH 0.5, initial 1 ppm
  Expulsion-% (maximum): 63.3%
[1]; Ba^2+, pH 3.0, initial 10 ppm
  Expulsion-% (maximum): 90.2%
[1]; Bi^3+, pH 3.0, initial 10 ppm
  Expulsion-% (maximum): 100%
[1]; Ca^2+, pH 2.6, initial 2 ppm
  Expulsion-% (maximum): 69.9%
[1]; Cd^2+, pH 3.6, initial 0.5 ppm
  Expulsion-% (maximum): 97.3%
[1]; Co^2+, pH 3.4, initial 1 ppm
  Expulsion-% (maximum): 85.0%
[1]; Cr^3+, pH 3.1, initial 2 ppm
  Expulsion-% (maximum): 97.2%
[1]; Cr^6+, pH 6.6, initial 2 ppm
  Expulsion-% (maximum): 0%
[1]; Cu^2+, pH 3.5, initial 2 ppm
  Expulsion-% (maximum): 95.7%
[1]; Cu^+, pH 2.4, initial 2 ppm
  Expulsion-% (maximum): 85.3%
[1]; Eu^3+, pH 4.0, initial 5 ppm
  Expulsion-% (maximum): 85.3%
[1]; Fe^2+, pH 6.5, initial 1 ppm
  Expulsion-% (maximum): 93.0%
[1]; Fe^3+, pH 3.1, initial 1 ppm
  Expulsion-% (maximum): 98.9%
[1]; Ga^3+, pH 0.5, initial 50 ppm
  Expulsion-% (maximum): 1.0%
[1]; Gd^3+, pH 1.5, initial 100 ppm
  Expulsion-% (maximum): 0%
[1]; Hg^2+, pH 5.0, initial 0.1 ppm
  Expulsion-% (maximum): 93.0%
[1]; Hg^+, pH 3.0, initial 1 ppm
  Expulsion-% (maximum): 89.4%
[1]; In^3+, pH 2.1, initial 20 ppm
  Expulsion-% (maximum): 73.4%
[1]; Ir^3+, pH 0.6, initial 100 ppm
  Expulsion-% (maximum): 66.1%
[1]; K^+, pH 4.2, initial 1 ppm
  Expulsion-% (maximum): 0%
[1]; La^3+, pH 3.0, initial 100 ppm
  Expulsion-% (maximum): 54.1%
[1]; Li^+, pH 3.9, initial 0.5 ppm
  Expulsion-% (maximum): 4.8%
[1]; Mg^2+, pH 2.9, initial 0.5 ppm
  Expulsion-% (maximum): 64.3%
[1]; Mn^2+, pH 3.4, initial 1 ppm
  Expulsion-% (maximum): 93.8%
[1]; Mo^6+, pH 8.9, initial 10 ppm
  Expulsion-% (maximum): 80.8%
[1]; Na^+, pH 3.9, initial 0.5 ppm
  Expulsion-% (maximum): 0%
[1]; Nb^5+, pH 8.5, initial 100 ppm
  Expulsion-% (maximum): 100%
[1]; Nd^3+, pH 4.1, initial 100 ppm
  Expulsion-% (maximum): 98.1%
[1]; Ni^2+, pH 3.3, initial 1 ppm
  Expulsion-% (maximum): 78.6%
[1]; Os^4+, pH 0.5, initial 100 ppm
  Expulsion-% (maximum): 85.8%
[1]; Pb^2+, pH 3.2, initial 5 ppm
  Expulsion-% (maximum): 99.6%
[1]; Pd^2+, pH 8.0, initial 5 ppm
  Expulsion-% (maximum): 77.8%
[1]; Pt^2+, pH 0.5, initial 25 ppm
  Expulsion-% (maximum): 70.0%
[1]; Rh^3+, pH 4.0, initial 10 ppm
  Expulsion-% (maximum): 77.7%
[1]; Ru^3+, pH 2.0, initial 10 ppm
  Expulsion-% (maximum): 48.5%
[1]; Sb^3+, pH 3.0, initial 10 ppm
  Expulsion-% (maximum): 100%
[1]; Sc^3+, pH 2.0, initial 5 ppm
  Expulsion-% (maximum): 100%
[1]; Si^4+, pH 1.0, initial 50 ppm
  Expulsion-% (maximum): 1.3%
[1]; Sn^2+, pH 7.0, initial 50 ppm
  Expulsion-% (maximum): 98.1%
[1]; Sn^4+, pH 10.3, initial 200 ppm
  Expulsion-% (maximum): 100%
[1]; Sr^2+, pH 5.0, initial 2 ppm
  Expulsion-% (maximum): 93.2%
[1]; Ti^4+, pH 9.8, initial 50 ppm
  Expulsion-% (maximum): 48.8%
[1]; U^6+, pH 3.4, initial 2.5 ppm
  Expulsion-% (maximum): 87.6%
[1]; V^4+, pH 0.5, initial 100 ppm
  Expulsion-% (maximum): 69.3%
[1]; W^6+, pH 1.6, initial 50 ppm
  Expulsion-% (maximum): 12.0%
[1]; Y^3+, pH 2.1, initial 25 ppm
  Expulsion-% (maximum): 89.1%
[1]; Zn^2+, pH 3.7, initial 0.5 ppm
  Expulsion-% (maximum): 94.7%
[1]; Zr^4+, pH 0.5, initial 100 ppm
  Expulsion-% (maximum): 81.5%
[2]; Al^3+
  Expulsion [%]: 87.9%
[2]; Au^3+
  Expulsion [%]: 65.0^1) %
[2]; Cr^3+
  Expulsion [%]: 2.6%
[2]; Fe^2/3+
  Expulsion [%]: ≥ 96.6^2) %
[2]; Mg^2+
  Expulsion [%]: 0%
[2]; Mn^2+
  Expulsion [%]: 0%
[2]; Ni^2+
  Expulsion [%]: 1.3%
[2]; Zn^2+
  Expulsion [%]: 1.4%
[3]; Spiked TS 3a, Al^3+
  Expulsion [%]: ≥ 79.3^5) %
[3]; Spiked TS 3a, Ca^2+
  Expulsion [%]: 88.9%
[3]; Spiked TS 3a, Cd^2+
  Expulsion [%]: 75.6%
[3]; Spiked TS 3a, K^+
  Expulsion [%]: 1.8%
[3]; Spiked TS 3a, Na^+
  Expulsion [%]: 3.5%
[3]; Spiked TS 3a, Pb^2+
  Expulsion [%]: ≥ 97.8^5) %
[3]; Spiked TS 3a, Sr^2+
  Expulsion [%]: 14.6%
[3]; Spiked TS 3a, Zn^2+
  Expulsion [%]: 93.6%
[3]; Spiked TS 3b, Ca^2+
  Expulsion [%]: 95.2%
[3]; Spiked TS 3b, Cd^2+
  Expulsion [%]: 96.2%
[3]; Spiked TS 3b, K^+
  Expulsion [%]: 0.8%
[3]; Spiked TS 3b, Na^+
  Expulsion [%]: 7.1%
[3]; Spiked TS 3b, Pb^2+
  Expulsion [%]: ≥ 98.1^5) %
[3]; Spiked TS 3b, Sr^2+
  Expulsion [%]: 60.2%
[3]; Spiked TS 3b, Zn^2+
  Expulsion [%]: 91.3%
[3]; TS 3, Al^3+
  Expulsion [%]: 3.4^ %
[3]; TS 3, Ca^2+
  Expulsion [%]: 1.9%
[3]; TS 3, Cd^2+
  Expulsion [%]: 2.1%
[3]; TS 3, K^+
  Expulsion [%]: 2.9%
[3]; TS 3, Mg^2+
  Expulsion [%]: 1.5%
[3]; TS 3, Mn^2+
  Expulsion [%]: 1.9%
[3]; TS 3, Na^+
  Expulsion [%]: 10.8%
[3]; TS 3, Pb^2+
  Expulsion [%]: 65.7%
[3]; TS 3, Sr^2+
  Expulsion [%]: 2.1%
[3]; TS 3, Zn^2+
  Expulsion [%]: 3.6%
[3]; TS 3a (TS 3 diluted 1:10), Al^3+
  Expulsion [%]: ≥ 71.8^5) %
[3]; TS 3a (TS 3 diluted 1:10), Ca^2+
  Expulsion [%]: 88.1%
[3]; TS 3a (TS 3 diluted 1:10), K^+
  Expulsion [%]: 0%
[3]; TS 3a (TS 3 diluted 1:10), Na^+
  Expulsion [%]: 2.0%
[3]; TS 3a (TS 3 diluted 1:10), Pb^2+
  Expulsion [%]: ≥ 35.5^5) %
[3]; TS 3a (TS 3 diluted 1:10), Sr^2+
  Expulsion [%]: 12.5%
[3]; TS 3a (TS 3 diluted 1:10), Zn^2+
  Expulsion [%]: 0.0%
[3]; TS 3b (TS 3 diluted 1:100), Ca^2+
  Expulsion [%]: 93.1%
[3]; TS 3b (TS 3 diluted 1:100), K^+
  Expulsion [%]: 1.6%
[3]; TS 3b (TS 3 diluted 1:100), Na^+
  Expulsion [%]: 9.9%
[3]; TS 3b (TS 3 diluted 1:100), Sr^2+
  Expulsion [%]: 53.4%
[3]; TS 3b (TS 3 diluted 1:100), Zn^2+
  Expulsion [%]: ≥ 48.5^5) %

Reference: patent US20140263071A1, “METHOD FOR COLLECTING METALS” (CHEMEC OY AB, priority 2011, published 2014)
